Data as given in patent publication US6806283B2, “Selective serotonin receptor antagonists and therapeutic applications thereof” (Virginia Commonwealth University, priority 2002, dated 2004).
Like-named read-outs stand apart in the source and are kept apart here.

Legend:
[1] = biological target: 5-HT2A serotonin receptor (Homo sapiens, UniProt P28223); test: 5-HT2A serotonin receptor radioligand binding assay (3H-ketanserin)
Protocol: Binding assays were conducted in which the affinity of each of the compounds of interest for the 5-HT2A serotonin receptor was tested. Assays were conducted with the 5-HT2A receptor in buffer consisting of 50 mM Tris-Cl, 0.5 mM EDTA, 5 mM MgCl2, pH=7.4.

H1 histamine receptor = H1 histamine receptor (Homo sapiens, UniProt P35367); test: H1 histamine receptor radioligand binding assay (3H-pyrilamine)
H1 histamine receptor, sequence (P35367 whole entry): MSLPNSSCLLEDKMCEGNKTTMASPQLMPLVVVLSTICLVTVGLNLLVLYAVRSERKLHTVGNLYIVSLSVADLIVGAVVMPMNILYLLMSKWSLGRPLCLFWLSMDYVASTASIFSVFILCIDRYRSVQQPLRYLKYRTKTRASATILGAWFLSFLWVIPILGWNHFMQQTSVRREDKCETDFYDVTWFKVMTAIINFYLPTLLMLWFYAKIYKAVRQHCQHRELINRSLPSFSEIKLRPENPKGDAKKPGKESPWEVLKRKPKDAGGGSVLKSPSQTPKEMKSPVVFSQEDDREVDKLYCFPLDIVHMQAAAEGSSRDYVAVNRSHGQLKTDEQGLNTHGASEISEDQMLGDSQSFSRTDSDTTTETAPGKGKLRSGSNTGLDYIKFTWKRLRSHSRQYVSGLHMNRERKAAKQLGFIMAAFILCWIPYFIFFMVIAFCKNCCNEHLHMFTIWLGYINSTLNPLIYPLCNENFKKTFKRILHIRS
Protocol: Binding assays were also conducted in which the affinity of selected compounds of interest for the H1 histamine receptor was tested. […] The H1 determinations used ^3H-pyrilamine as the radioligand with chlorpheniramine as the reference compound.

5-HT2 receptor = 5-HT2 receptor (Homo sapiens, UniProt P28223); test: Affinity for 5-HT2 receptors; format: binding
5-HT2 receptor, sequence (P28223 whole entry): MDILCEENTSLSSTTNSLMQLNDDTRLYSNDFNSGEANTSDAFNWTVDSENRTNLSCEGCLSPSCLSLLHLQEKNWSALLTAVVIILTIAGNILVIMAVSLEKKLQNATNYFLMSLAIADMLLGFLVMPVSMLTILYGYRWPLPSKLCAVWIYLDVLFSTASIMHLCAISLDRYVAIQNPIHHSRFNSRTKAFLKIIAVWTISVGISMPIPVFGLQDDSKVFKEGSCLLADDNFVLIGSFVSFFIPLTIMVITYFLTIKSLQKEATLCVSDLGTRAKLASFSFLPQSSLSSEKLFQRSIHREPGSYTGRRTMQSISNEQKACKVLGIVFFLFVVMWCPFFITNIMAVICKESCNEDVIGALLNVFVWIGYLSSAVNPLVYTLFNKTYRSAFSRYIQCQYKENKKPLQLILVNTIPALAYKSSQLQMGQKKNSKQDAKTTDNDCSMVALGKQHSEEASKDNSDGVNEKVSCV

5-HT2c receptor = biological target: T1, 5-HT2c receptor (Homo sapiens, UniProt P28335); test: Affinity for 5-HT2c receptor; format: binding
T1 sequence (P28335 33-458): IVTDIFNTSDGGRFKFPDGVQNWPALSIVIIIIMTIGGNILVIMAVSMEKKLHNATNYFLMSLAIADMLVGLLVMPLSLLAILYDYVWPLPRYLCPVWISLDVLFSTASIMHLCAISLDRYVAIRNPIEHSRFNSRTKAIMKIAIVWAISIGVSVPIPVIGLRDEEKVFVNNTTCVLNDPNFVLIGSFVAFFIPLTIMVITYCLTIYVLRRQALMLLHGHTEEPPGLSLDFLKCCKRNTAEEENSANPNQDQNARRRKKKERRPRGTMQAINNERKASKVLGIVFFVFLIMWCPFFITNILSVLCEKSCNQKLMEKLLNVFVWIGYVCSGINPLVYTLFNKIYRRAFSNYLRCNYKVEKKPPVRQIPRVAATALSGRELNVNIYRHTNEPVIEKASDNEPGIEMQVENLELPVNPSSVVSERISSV

dopamine D2 receptor = dopamine D2 receptor (Homo sapiens, UniProt P14416); test: Affinity for dopamine D2 receptor; format: binding
dopamine D2 receptor, sequence (P14416 whole entry, species assumed): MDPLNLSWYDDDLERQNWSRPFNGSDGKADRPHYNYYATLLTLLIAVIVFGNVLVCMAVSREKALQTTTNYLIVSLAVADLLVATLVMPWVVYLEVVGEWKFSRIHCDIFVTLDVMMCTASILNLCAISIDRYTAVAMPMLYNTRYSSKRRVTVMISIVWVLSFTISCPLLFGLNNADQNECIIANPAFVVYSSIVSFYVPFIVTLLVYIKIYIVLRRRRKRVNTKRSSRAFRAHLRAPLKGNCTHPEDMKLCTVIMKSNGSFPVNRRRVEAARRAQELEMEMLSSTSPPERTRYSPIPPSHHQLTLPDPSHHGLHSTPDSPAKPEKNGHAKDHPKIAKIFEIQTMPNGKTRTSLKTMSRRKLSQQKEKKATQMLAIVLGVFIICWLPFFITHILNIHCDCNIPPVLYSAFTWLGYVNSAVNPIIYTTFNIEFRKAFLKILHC

serotonin transporter = serotonin transporter (Homo sapiens, UniProt P31645); test: Affinity for serotonin transporter; format: binding
serotonin transporter, sequence (P31645 whole entry): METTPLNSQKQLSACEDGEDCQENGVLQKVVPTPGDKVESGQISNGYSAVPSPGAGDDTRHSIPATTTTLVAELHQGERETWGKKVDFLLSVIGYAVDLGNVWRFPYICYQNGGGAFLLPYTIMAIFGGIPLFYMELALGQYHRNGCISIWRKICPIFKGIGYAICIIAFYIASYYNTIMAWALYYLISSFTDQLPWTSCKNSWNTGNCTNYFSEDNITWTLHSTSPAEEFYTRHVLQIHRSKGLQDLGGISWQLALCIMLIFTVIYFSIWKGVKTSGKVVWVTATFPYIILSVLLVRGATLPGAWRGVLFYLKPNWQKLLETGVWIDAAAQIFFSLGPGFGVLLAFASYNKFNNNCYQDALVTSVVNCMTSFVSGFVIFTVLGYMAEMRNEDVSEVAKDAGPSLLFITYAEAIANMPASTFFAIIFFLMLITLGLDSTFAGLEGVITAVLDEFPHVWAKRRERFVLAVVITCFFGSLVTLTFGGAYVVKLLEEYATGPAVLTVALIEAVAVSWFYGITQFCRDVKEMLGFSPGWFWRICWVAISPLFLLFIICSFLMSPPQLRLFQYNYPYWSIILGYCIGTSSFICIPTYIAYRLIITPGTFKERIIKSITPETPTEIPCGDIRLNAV

[2] = biological target: norepinephrine transporter (Homo sapiens, UniProt P23975); test: Affinity for norepinephrine transporter; format: binding
norepinephrine transporter, sequence (P23975 whole entry, species assumed): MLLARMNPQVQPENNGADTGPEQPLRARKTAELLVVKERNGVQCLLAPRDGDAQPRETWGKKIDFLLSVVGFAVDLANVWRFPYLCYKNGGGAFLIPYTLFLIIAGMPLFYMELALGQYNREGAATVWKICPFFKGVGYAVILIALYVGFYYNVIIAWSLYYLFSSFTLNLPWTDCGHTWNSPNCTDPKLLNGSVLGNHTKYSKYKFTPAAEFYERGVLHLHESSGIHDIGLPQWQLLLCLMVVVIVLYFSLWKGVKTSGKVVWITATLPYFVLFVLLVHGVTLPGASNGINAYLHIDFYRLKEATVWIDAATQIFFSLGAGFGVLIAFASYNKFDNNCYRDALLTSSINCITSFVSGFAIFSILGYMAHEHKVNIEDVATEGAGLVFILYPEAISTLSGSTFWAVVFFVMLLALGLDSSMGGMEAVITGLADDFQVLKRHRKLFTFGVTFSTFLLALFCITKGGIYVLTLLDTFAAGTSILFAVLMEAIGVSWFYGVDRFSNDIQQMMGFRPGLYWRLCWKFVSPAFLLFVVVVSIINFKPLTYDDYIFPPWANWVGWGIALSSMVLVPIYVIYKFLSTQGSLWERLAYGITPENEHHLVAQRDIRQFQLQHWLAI

[3] = 3H-pyrilamine radioligand, chlorpheniramine reference, read-out: H1 Ki
[4] = in words, read-out: affinity class for histamine H1 receptor

5-HT2A serotonin receptor, sequence (P28223 whole entry): as the sequence (P28223 whole entry) above

SMILES	Ki [1]	Ki (H1 histamine receptor; [3])	Ki (H1 histamine receptor; [4])	further results
CC1(C)c2ccccc2C2(CCNC2)c2ccccc21 [Compound 12, Spiro[-(10,10-dimethyl)-9,10-dihydroanthracene]-9,3′-pyrrolidine]	68 nM	–	–	–
c1ccc2c(c1)Oc1ccccc1C21CCNC1 [Compound 30, Spiro[xanthenyl]-9,3′-pyrrolidine]	40 nM	51 nM	≤ 100 nM	–
COc1ccc2c(c1)Cc1ccccc1C21CCN(Cc2ccccc2)C1 (stereo not drawn) [Compound 16, 3-Methoxy-9,9-[spiro-3′-(n-benzyl)-pyrrolidinyl]-9,10-dihydroanthracene]	1000 nM	74 nM	≤ 100 nM	–
c1ccc(CCCc2ccc3c(c2)Cc2ccccc2C32CCN(Cc3ccccc3)C2)cc1 (stereo not drawn) [Compound 22, 3-(3-Phenylpropyl)-9,9-[spiro-3′-(n-benzyl)-pyrrolidinyl]-9,10-dihydroanthracene]	998 nM	–	–	–
c1ccc2c(c1)Cc1ccccc1C21CCNC1 [Compound 5, Spiro[9,10-dihydroanthracene]-9,3′-pyrrolidine]	3.8 nM	8.5 nM	≤ 100 nM	Ki (5-HT2 receptor): 1 to 500 nM; Ki (5-HT2 receptor; read-out: Ki for 5-HT2 receptors): 4 nM; Ki (5-HT2c receptor): 1 to 500 nM; Ki (5-HT2c receptor; read-out: Ki for 5-HT2c receptor): 24 nM; Ki (dopamine D2 receptor): 5040 nM; Ki (serotonin transporter): > 10000 nM; Ki [2]: > 10000 nM
c1ccc2c(c1)Sc1ccccc1C21CCNC1 [Compound 36, Spiro[thioxanthenyl]-9,3′-pyrrolidine]	5 nM	6 nM	≤ 100 nM	–
CCCCCCc1ccc2c(c1)Cc1ccccc1C21CCN(Cc2ccccc2)C1 (stereo not drawn) [Compound 20, 3-n-Hexyl-9,9-[spiro-3′-(n-benzyl)-pyrrolidinyl]-9,10-dihydroanthracene]	2030 nM	–	–	–
CCCCCCc1ccc2c(c1)Cc1ccccc1C21CCNC1 (stereo not drawn) [Compound 21, 3-n-Hexyl-9,9-[spiro-3′-pyrrolidinyl]-9,10-dihydroanthracene]	6 nM	1600 nM	–	–
CN1CCC2(C1)c1ccccc1Cc1ccccc12 [Compound 6, Spiro[9,10-dihydroanthracene]-9,3′-(1-methyl)-pyrrolidine]	46 nM	–	–	–
COc1ccc2c(c1)Cc1ccccc1C21CCNC1 (stereo not drawn) [Compound 17, 3-Methoxy-9,9-[spiro-3′-pyrrolidinyl]-9,10-dihydro-anthracene]	3.7 nM	40 nM	≤ 100 nM	–

Second part, led by results:

Ki [1]	SMILES	Ki (H1 histamine receptor; [3])	Ki (H1 histamine receptor; [4])	further results
3.5 nM	c1ccc(CCCc2ccc3c(c2)Cc2ccccc2C32CCNC2)cc1 (stereo not drawn) [Compound 23, 3-(3-Phenylpropyl)-9,9-[spiro-3′-pyrrolidinyl]-9,10-dihydroanthracene]	–	–	–
220 nM	c1ccc(CN2CCC3(C2)c2ccccc2Cc2ccccc23)cc1 [Compound 7, Spiro[9,10-dihydroanthracene]-9,3′-(1-benzyl)-pyrrolidine]	–	–	–
9.2 nM	Oc1ccc2c(c1)Cc1ccccc1C21CCNC1 (stereo not drawn) [Compound 19, Spiro[-(3-hydroxy)-9,10-dihydroanthracene]-9,3′-pyrrolidine]	–	–	–
18 nM	c1ccc(-c2ccc3c(c2)Cc2ccccc2C32CCNC2)cc1 (stereo not drawn) [Compound 25, 3-(3-Phenyl)-9,9-[spiro-3′-pyrrolidinyl]-9,10-dihydroanthracene]	–	–	–
330 nM	Oc1ccc2c(c1)Cc1ccccc1C21CCN(Cc2ccccc2)C1 (stereo not drawn) [Compound 18, 3-Hydroxy-9,9-[spiro-3′-(n-benzyl)-pyrrolidinyl]-9,10-dihydroanthracene]	–	–	–
